Values after ≈ are worked out from the molar mass of the structure shown. Read-outs that look alike come from different tables or passages of the source.
Assays:
[1] = test system: Mouse leukemia L1210 cells; assay: Inhibitory activity on the growth of L1210 cells; format: cell-based; conditions: for IC50: L1210 cell growth
Procedure: Mouse leukemia L1210 cells were cultured in RPM11640 medium (Gifco) containing 10% horse serum (Gifco) at 37°C under 5% carbon dioxide gas so that the leukemia cells were contained in the amount of 5 x 10^4 cells/ml, and the cells were subjected to passage culture every two or three days to maintain the cell density of 5 x 10^4 cells/ml. The diluted sample solution (0.1 ml) was added to each well of a 24-well plate which contained 0.9 ml of the cultured L1210 cells, and the mixture was incubated at 37 ° C for 48 hours under 5% carbon dioxide gas. The sample solution mentioned above was prepared by dissolving a weighed test compound in dimethyl sulfoxide (DMSO) at the concentration of 100 mg/ml and then diluting the solution with distilled water so that the concentration became 10 mg/ml. The resulting aqueous solution was diluted with phosphate buffer solution to obtain a sample solution at a desired concentration. After incubation, the cell numbers in each well were counted and inhibitory activity on cell growth (ICso) was calculated.

[2] = test system: Staphylococcus epidermidis ATCC 12228; assay: Antibacterial activity, agar-dilution method (Mueller Hinton agar); format: cell-based; conditions: for minimum inhibitory concentrations (MICs): Staphylococcus epidermidis ATCC 12228; for MIC: Staphylococcus epidermidis
Procedure: (§1) Antibacterial activity of the tylosin derivative of the present invention was determined by the agar- dilution method using a Mueller Hinton agar medium (Difco). The results obtained are summarized in Table 1 in which minimum inhibitory concentrations (MICs, ug/ml) are shown. Hereinafter in the specification, Compound A (the compound described in Example 3) is defined as being 4"-O-[(S)-(+)-p-methoxymandeloyl]tylosin represented by the following formula: [drawing 3] wherein R is the same as that defined above; Compound B (the compound described in Example 2) is defined as being 4"-O-[(R)-(-)-p-methoxymandeloyl]tylosin represented by the following formula: [drawing 4] wherein R is the same as that defined above; XV represents 4"-O-[p-methoxyphenylacetyl]tylosin; RKM represents rokitamycin; and EM represents erythromycin.

Escherichia coli K12 = assay: as above; format: cell-based; conditions: for MIC: read-out: minimum inhibitory concentrations (MICs)
Procedure: as §1

[3] = test system: Staphylococcus aureus Smith; assay: as above; format: cell-based; conditions: for MIC: read-out: minimum inhibitory concentrations (MICs)
Procedure: as §1

[4] = test system: Staphylococcus aureus 209P; assay: as above; format: cell-based; conditions: for MIC: read-out: minimum inhibitory concentrations (MICs)
Procedure: as §1

[5] = test system: Bacillus subtilis ATCC 6633; assay: as above; format: cell-based
Procedure: as §1

[6] = Stability test using mouse liver homogenate; format: in vitro ADME, ICR mouse; conditions: for Remaining unhydrolyzed substance (%): after being treated with liver homogenate for 60 minutes at 37 C
Procedure: A liver in collected from an ICR mouse was homogenized by a Potter homogenizer in five times volume of 0.1 M phosphate buffer solution (pH 7.2), and supernatant was obtained by centrifuging the homogenate at 3000 rpm for 10 minutes. To 2 ml of the supernatant obtained above, 2 ml of sample solution containing 500 µg/ml of test compound in 20% aqueous methanol and 1 ml of 0.1 M phosphate buffer solution were added, and the mixture was incubated at 37 ^0 c for 60 minutes and then 1 ml of the mixture was heated at 85 ° C for 3 minutes. The reaction mixture was adjusted to pH 9.0 by adding 1 N NaOH and extracted with 1 ml of ethyl acetate.

mouse bone marrow cells = assay: Inhibition of the colony formation of mouse bone marrow cells; format: cell-based; conditions: for Number of colonies Average: 1.0 μg/ml (control average 75.3); for Number of colonies 1: count 1 (control 95); for Number of colonies 2: count 2 (control 66); for activity at 1 µg/mL: Mus musculus, Bone marrow cell
ML-resistant strain = assay: Antibacterial activity, agar-dilution method (Mueller Hinton agar); format: cell-based, Staphylococcus aureus; conditions: macrolide resistant strain; for MIC: Staphylococcus aureus, read-out: minimum inhibitory concentrations (MICs)
Procedure: as §1

[7] = 1.0 μg/ml, relative to control = 100
[8] = ATCC12228, Staphylococcus epidermidis ATCC 12228, read-out: minimum inhibitory concentrations (MICs)
[9] = ATCC6633, Bacillus subtilis ATCC 6633, read-out: minimum inhibitory concentrations (MICs)

| Compound | Inhibitory activity on cell growth (%) ([1]; 1 μg/ml, 48 hours) | Inhibitory activity on cell growth (%) ([1]; 3 μg/ml, 48 hours) | Inhibitory activity on cell growth (%) ([1]; 10 μg/ml, 48 hours) | Inhibitory activity on cell growth (%) ([1]; 30 μg/ml, 48 hours) | Inhibitory activity on cell growth (%) ([1]; 100 μg/ml, 48 hours) | IC50 ([1]; 48 hours) [µg/mL] | minimum inhibitory concentrations (MICs) [2] [µg/mL] | minimum inhibitory concentrations (MICs) (Escherichia coli K12) [µg/mL] | minimum inhibitory concentrations (MICs) ([3]; Staphylococcus aureus Smith) [µg/mL] | minimum inhibitory concentrations (MICs) ([4]; Staphylococcus aureus 209P) [µg/mL] | minimum inhibitory concentrations (MICs) ([5]; Bacillus subtilis ATCC 6633) [µg/mL] | Number of colonies Average (mouse bone marrow cells) | Number of colonies 1 (mouse bone marrow cells; 1.0 μg/ml) | minimum inhibitory concentrations (MICs) (ML-resistant strain; 1st listed (Table 1 r5)) [µg/mL] | minimum inhibitory concentrations (MICs) (ML-resistant strain; 5th listed (Table 1 r9)) [µg/mL] | MIC (Escherichia coli K12) [µg/mL] | MIC (ML-resistant strain; 1st listed (Table 1 r5)) [µg/mL] | MIC (ML-resistant strain; 2nd listed (Table 1 r6)) [µg/mL] | MIC (ML-resistant strain; 3rd listed (Table 1 r7)) [µg/mL] | MIC (ML-resistant strain; 4th listed (Table 1 r8)) [µg/mL] | further results |
| --- | --- | --- | --- | --- | --- | --- | --- | --- | --- | --- | --- | --- | --- | --- | --- | --- | --- | --- | --- | --- | --- |
| 4"-O-[p-methoxyphenylacetyl]tylosin [XV] | 12.22 | 31.18 | 82.87 | 90.45 | 93.68 | 5.01 | 0.78 | > 100 | 1.56 | 0.20 | 0.39 | 13.0 | 13 | 6.25 | 1.56 |  |  |  |  |  | Remaining unhydrolyzed substance (%) [6]: 92.8%; Colony formation (%) (mouse bone marrow cells; [7]): 17.3%; minimum inhibitory concentrations (MICs) (ML-resistant strain; 2nd listed (Table 1 r6)): 0.78 µg/mL; minimum inhibitory concentrations (MICs) (ML-resistant strain; 3rd listed (Table 1 r7)): 3.13 µg/mL; minimum inhibitory concentrations (MICs) (ML-resistant strain; 4th listed (Table 1 r8)): 0.39 µg/mL |
| CCC1OC(=O)CC(O)C(C)C(OC2OC(C)C(OC3CC(C)(O)C(OC(=O)C(O)c4ccc(OC)cc4)C(C)O3)C(N(C)C)C2O)C(CC=O)CC(C)C(=O)C=CC(C)=CC1COC1OC(C)C(O)C(OC)C1OC [Compound B, 4"-O-[(R)-(-)-p-methoxymandeloyl]tylosin] | 0 | 0 | 13.48 | 41.43 | 87.22 | 32.99 (≈ 30.5 µM) | 0.78 (≈ 0.722 µM) | > 100 | 1.56 (≈ 1.44 µM) | 0.39 (≈ 0.361 µM) | 0.39 (≈ 0.361 µM) | 29.5 | 34 | 6.25 (≈ 5.79 µM) | 1.56 (≈ 1.44 µM) |  |  |  |  |  | Remaining unhydrolyzed substance (%) ([6]; 60 min): 100%; Number of colonies 2 (mouse bone marrow cells; 1.0 μg/ml): 25; minimum inhibitory concentrations (MICs) (ML-resistant strain; 2nd listed (Table 1 r6)): 0.39 µg/mL (≈ 0.361 µM); minimum inhibitory concentrations (MICs) (ML-resistant strain; 3rd listed (Table 1 r7)): 3.13 µg/mL (≈ 2.9 µM); minimum inhibitory concentrations (MICs) (ML-resistant strain; 4th listed (Table 1 r8)): < 0.20 µg/mL |
| CCCC(=O)O[C@H]1[C@H](C)O[C@@H](O[C@H]2[C@H](N(C)C)[C@@H](O)[C@H](O[C@H]3[C@@H](CC=O)C[C@@H](C)[C@@H](O)/C=C/C=C/C[C@@H](C)OC(=O)C[C@@H](O)[C@@H]3OC)O[C@@H]2C)C[C@@]1(C)OC(=O)CC [RKM, rokitamycin] |  |  |  |  |  |  |  |  |  |  |  | 19.0 |  |  |  | 100 (≈ 121 µM) | > 100 | > 100 | > 100 | < 0.2 | MIC [2, 8]: < 0.2 µg/mL; MIC ([3]; Staphylococcus aureus Smith): 0.39 µg/mL (≈ 0.471 µM); MIC ([4]; Staphylococcus aureus 209P): 0.2 µg/mL (≈ 0.242 µM); MIC [5, 9]: 0.1 µg/mL (≈ 0.121 µM); Number of colonies 3 (mouse bone marrow cells; 1.0 μg/ml, count 3 (control 65)): 19; activity at 1 µg/mL (mouse bone marrow cells; [7]): 25.2%; MIC (ML-resistant strain; 5th listed (Table 1 r9)): > 100 µg/mL |
| CC[C@H]1OC(=O)[C@H](C)[C@@H](O[C@H]2C[C@@](C)(OC)[C@@H](O)[C@H](C)O2)[C@H](C)[C@@H](O[C@@H]2O[C@H](C)C[C@H](N(C)C)[C@H]2O)[C@](C)(O)C[C@@H](C)C(=O)[C@H](C)[C@@H](O)[C@]1(C)O [EM, erythromycin] |  |  |  |  |  |  |  |  |  |  |  |  |  |  |  | 50 (≈ 68.1 µM) | > 100 | > 100 | > 100 | > 100 | MIC ([2]; ATCC12228, read-out: minimum inhibitory concentrations (MICs)): < 0.2 µg/mL; MIC ([3]; Staphylococcus aureus): 0.2 µg/mL (≈ 0.273 µM); MIC ([4]; Staphylococcus aureus, 209P): 0.1 µg/mL (≈ 0.136 µM); MIC ([5]; Bacillus subtilis, ATCC6633, read-out: minimum inhibitory concentrations (MICs)): 0.1 µg/mL (≈ 0.136 µM); MIC (ML-resistant strain; 5th listed (Table 1 r9)): > 100 µg/mL |
| CCC1OC(=O)CC(O)C(C)C(OC2OC(C)C(OC3CC(C)(O)C(OC(=O)C(O)c4ccc(OC)cc4)C(C)O3)C(N(C)C)C2O)C(CC=O)CC(C)C(=O)C=CC(C)=CC1COC1OC(C)C(O)C(OC)C1OC [Compound A, 4"-O-[(S)-(+)-p-methoxymandeloyl]tylosin] |  |  | 5.62 |  |  |  |  |  |  |  |  | 31.0 | 32 |  | 6.25 (≈ 5.79 µM) | > 100 | 6.25 (≈ 5.79 µM) | 0.39 (≈ 0.361 µM) | 6.25 (≈ 5.79 µM) | < 0.2 | inhibition at 1 µg/mL ([1]; Mus musculus, L1210, 48 h, 1 μg/ml, read-out: Inhibitory activity on cell growth (%)): 0%; inhibition at 3 µg/mL ([1]; Mus musculus, L1210, 48 h, 3 μg/ml, read-out: Inhibitory activity on cell growth (%)): 0%; inhibition at 30 µg/mL ([1]; Mus musculus, L1210, 48 h, 30 μg/ml, read-out: Inhibitory activity on cell growth (%)): 47.8%; inhibition at 100 µg/mL ([1]; Mus musculus, L1210, 48 h, 100 μg/ml, read-out: Inhibitory activity on cell growth (%)): 88.8%; IC50 ([1]; Mus musculus, L1210, 48 h, read-out: IC50): 36.6 µg/mL (≈ 33.9 µM); MIC [2, 8]: 0.39 µg/mL (≈ 0.361 µM); MIC ([3]; Staphylococcus aureus Smith): 1.56 µg/mL (≈ 1.44 µM); MIC ([4]; Staphylococcus aureus 209P): 0.39 µg/mL (≈ 0.361 µM); MIC [5, 9]: 0.39 µg/mL (≈ 0.361 µM); remaining at 1 h ([6]; mouse, liver homogenate, pH 7.2, after being treated with liver homogenate for 60 minutes at 37 C, read-out: Remaining unhydrolyzed substance (%)): 97.8%; Number of colonies 2 (mouse bone marrow cells; 1.0 μg/ml): 30; activity at 1 µg/mL (mouse bone marrow cells; [7]): 41.2% |

Source: patent publication EP0482594A1, “Tylosin derivative and method for preparing the same” (MERCIAN CORPORATION, priority 1990, dated 1992)
